{
  "source": "patent US20240417404A1",
  "about": "“CRYSTALLINE FORMS OF N-[4-[4-(4-MORPHOLINYL)-7H-PYRROLO[2,3-d]PYRIMIDIN-6-YL]PHENYL]-4-[[3(R)-[(1-OXO-2-PROPEN-1-YL)AMINO]-1-[sequence]]METHYL]-2-PYRIDINECARBOXAMIDE AS IRREVERSIBLE INHIBITORS OF MENIN-MLL INTERACTION” (BIOMEA FUSION, INC., priority 2023, published 2024)",
  "key": {"U2932": {"system": "U2932", "experiment": "DLBCL cell line proliferation (Cell Titer Glo, four days): U2932", "format": "cell-based", "details": "U2932, DEL-ABC, MYC/BCL2 Overexpression", "description": "(§1) DLBCL cell line TOLEDO was cultured in the presence of Compound A or clinical reversible menin inhibitors for six and fourteen hours. Menin protein expression was reduced up to 60% at 1 μM by Compound A after fourteen hours compared to clinical reversible inhibitors at <20% at similar concentrations. Menin protein expression was measured by the Wes system and analyzed using the Compass software (automated western blotting, Protein Simple). Signal was normalized to GAPDH and referenced to DMSO control (FIG. 36E). DLBCL and MM cell lines were cultured with Compound A, bortezomib (PS-341), or DMSO for four days and cell proliferation was measured by Cell Titer Glo. Ex vivo studies of DLBCL and MM models were conducted by measurement of cell proliferation (Cell Titer Glo) after six days of treatment with Compound A, PS-341, or DMSO control."}, "[1]": {"biological_target": "T1, Menin protein in DLBCL cell line TOLEDO (Homo sapiens, UniProt O00255)", "T1 construct": "endogenous in cells; host or cells: TOLEDO (DLBCL cell line)", "experiment": "Menin protein expression in TOLEDO cells (Wes automated western blotting)", "format": "cell-based", "details": "1 μM, fourteen hours, normalized to GAPDH, referenced to DMSO", "description": "as §1"}, "MM1.S": {"system": "MM1.S", "experiment": "MM cell line proliferation (Cell Titer Glo, four days): MM1.S", "format": "cell-based", "details": "t(14; 16), KRAS G12A", "description": "as §1"}, "[2]": {"system": "Zucker diabetic fatty rats (ZDF rats)", "experiment": "Glycemic control in Zucker diabetic fatty rats, 16-day dosing plus two-week washout", "format": "in vivo, rat", "description": "The present examples provides the ability of Compound 10 to restore glycemic control to diabetic Zucker diabetic fatty rats (ZDF rats, genotype ZDF-Lepr^fa/Crl; Charles River). Cornicelli et al., 2005, Charles River.\nControl and test compounds were stored at 4° C. and prepared weekly as needed. The vehicle for positive control pioglitazone was 0.25% carboxymethylcellulose and 1% Tween® 80 in reverse osmosis deionized water. The vehicle for Compound 10 was 10% DMSO, 10% Solutol HS 15, and 80% (10% hydroxypropyl-β-cyclodextrin in 50 mM citrate buffer at pH 3.0).\nOn Day −3, twenty-four ZDF rats (plus eight spare ZDF rats) were measured for body weight and non-fasting glucose. LabDiet 5008 was provided ad libitum throughout the study, except during designated procedures, as was water. In order to minimize the effects of stress on blood glucose and body, all animals including the spares received daily sham doses with phosphate buffered saline pH 7.2 (dose volume 5 mL/kg) via gavage beginning on Study Day −5 to Day −1.\nVehicle, control, and test compound were administered via oral gavage according to the following design on Days 1-16.\nOn Days −3, 1, 8, and 14 non-fasting blood glucose was measured. On Day 15, an oral glucose tolerance test was administered. The animals were weighed, and the animals were placed in clean cages without food. Access to water was provided throughout the procedure. The animals were fasted for five hours and a blood glucose measurement was determined. The animals were dosed via oral gavage with 2 g/kg glucose (10 mL/kg). Blood glucose was determined via tail snip. The second drop of blood from the animal was placed on a hand-held glucometer (Abbott Alpha Trak) at the following times relative to the glucose dose: zero (just prior to glucose dose), 15, 30, 60, 90, and 120 min. Following the final blood glucose measurement, food was returned to the cages. On Day 17, 4-hour fasting glucose was measured. Serum samples were used to measure insulin by ELISA. Analysis was performed in one to three days of each collections. On Day 17, terminal blood collection was obtained at about 8 mL per animal and measured for blood glucose.\nZDF rats were treated daily with Compound 10, vehicle, or pioglitazone for sixteen days and monitored for an additional two weeks post-treatment until Day 29. STZ rat models were induced through pre-treatment of animals on a high-fat diet with low doses of streptozotocin at Day −14 and Day −7 prior to starting treatment at Day Zero until Day 16. ZDF and STZ rats were monitored for fasting blood glucose levels, oral glucose tolerance test (OGTT), insulin and C-peptide levels, HOMA-IR (Homeostatic Model Assessment of Insulin Resistance), blood lipemic levels, and body weight according to the schematic for each model below. ZDF rats were analyzed for indicated readouts for fifteen days post-treatment for OGTT at Day 29, and serum insulin and C-peptide at Day 31.\nZDF Rat Model—three treatment groups 1. Vehicle; 2. Compound 10 at 175 mg/kg; and 3. Pioglitazone at 30 mg/kg; n=10 per group. Daily dosing zero to sixteen days QD→drug wash out at sixteen to twenty-nine days. Rats were monitored for the following parameters through dosing and wash out phases—body weight, fasting blood sugar, blood insulin, C-peptide, and OGTT."}, "Toledo": {"system": "Toledo", "experiment": "DLBCL cell line proliferation (Cell Titer Glo, four days): Toledo", "format": "cell-based", "details": "DHL, MYC/BCL2", "description": "as §1"}, "[3]": {"details": "ZDF rats, 175 mg/kg/day PO QD, compared to vehicle and control"}},
  "note": "“Also recorded” adds a separate entry of the source.",
  "data": [
    {"smiles": "C=CC(=O)N[C@@H]1CCCN(Cc2ccnc(C(=O)Nc3ccc(-c4cc5c(N6CCOCC6)ncnc5[nH]4)cc3)c2)C1", "note": "[Compound A, N-[4-[4-(4-morpholinyl)-7H-pyrrolo[2,3-d]pyrimidin-6-yl]phenyl]-4-[[3(R)-[(1-oxo-2-propen-1-yl)amino]-1-piperidinyl]methyl]-2-pyridinecarboxamide]", "values": [
      {"measurement": "IC50", "setting": "U2932; Homo sapiens, read-out: Average IC50 ± Standard Deviation", "value": "370 ± 12", "unit": "nM"},
      {"measurement": "Average % Max Inhibition by Compound A", "setting": "U2932", "value": 92.4, "unit": "%"},
      {"measurement": "reduction of Menin protein expression", "setting": "[1]", "value": "up to 60%"},
      {"measurement": "Average % Max Inhibition by Compound A", "setting": "MM1.S", "value": 99.5, "unit": "%"},
      {"measurement": "glucose, non-fasting and fasting states", "setting": "[2]; [3]", "value": "significant reduction of glucose"},
      {"measurement": "insulin, non-fasting and fasting states", "setting": "[2]; [3]", "value": "significant reduction of insulin"},
      {"measurement": "insulin resistance (HOMA-IR)", "setting": "[2]; ZDF rats, 175 mg/kg/day PO QD, non-fasting and fasting, vs vehicle, listed as Compound 10, 175 mg/kg/day", "value": "significant reduction of insulin resistance; also recorded: reduced HOMA-IR"},
      {"measurement": "OGTT AUC reduction", "setting": "[2]; ZDF rats, Day 15, p<0.001", "value": 54, "unit": "%"},
      {"measurement": "oral glucose tolerance test, glucose control", "setting": "[2]; ZDF rats, Day 29, after fourteen days of no treatment", "value": "significant glucose control"},
      {"measurement": "OGTT AUC reduction", "setting": "[2]; ZDF rats, Day 29, drug washout, ~two weeks after the last dose, p<0.05", "value": 40, "unit": "%"},
      {"measurement": "oral glucose tolerance test, glucose control", "setting": "[2]; ZDF rats, after fifteen days of treatment (Day 15)", "value": "significant glucose control"},
      {"measurement": "reduction in fasting and non-fasting blood glucose levels", "setting": "[2]; ZDF rats, after two weeks of treatment", "value": "~50", "unit": "%"},
      {"measurement": "serum insulin and C-peptide levels", "setting": "[2]; ZDF rats, after two weeks of treatment, p<0.05", "value": "significantly reduced"},
      {"measurement": "4-hour fasting insulin and glucose after washout", "setting": "[2]; ZDF rats, no therapy for two weeks", "value": "increasing insulin and glucose lowering"},
      {"measurement": "insulin sensitivity", "setting": "[2]; ZDF rats, sixteen days treatment (FIG. 26)", "value": "increases insulin sensitivity"},
      {"measurement": "C-peptide", "setting": "[2]; ZDF rats, two weeks after therapy", "value": "increasing C-peptide"},
      {"measurement": "blood lipemic levels and body weight", "setting": "[2]; treated ZDF rats, sixteen days (FIG. 27)", "value": "significantly reduces blood lipemic levels and reduces body weight"},
      {"measurement": "Average % Max Inhibition by Compound A", "setting": "Toledo", "value": 98.8, "unit": "%"}
    ]}
  ]
}
